# Assay results as given in patent US20240262803A1, “COMPOUNDS, COMPOSITIONS AND METHODS OF TREATING DISORDERS” (Chungdu Anticancer Bioscience Ltd, priority 2021, published 2024).
# Like-named read-outs stand apart in the source and are kept apart here.
# Columns and labels:
# Type in all cases: cell-based
# [1] = system: colon cancer cell line SW460; assay: MTT assay of cellular proliferation, SW460; details: Homo sapiens, SW480; read-out: EC50: Concentration that inhibits 50% of proliferation
# Protocol: (§1) Six lung cancer cell lines (NCI-H23, NCI-H460, NCI-H596, NCI-H2170, Calu-6 and A549), two colon cancer cell lines (HCT116 and SW460), one breast cancer cell line MDA-MB-231, one gastric cancer cell line NCI-N87, one prostate cancer cell line DU145, one cervical cancer cell line Hela, and one glioblastoma cell line T98G were obtained from ATCC. The T2 HCC cell line was derived from a mouse liver cancer model initiated by a transgene of MYC (Reference). All cell lines were cultured in DMEM (Gibco, Cleveland, TN, USA) supplemented with 5% fetal bovine serum (Gibco), penicillin (100 U/mL)-streptomycin (100 μg/mL) (Gibco, Cat. No. 15140-122), 2 mM L-glutamine (Gibco, 200 mM solution, Cat. No. 25030081), and 1 mM sodium pyruvate (Gibco, 100 mM solution, Cat. No. 11360070) at 37° C. in a humidified incubator that was maintained at 5% CO2.
# (§2) The MTT assay measures cellular metabolic activity as a proxy for cell viability and involves the conversion of the water-soluble yellow dye MTT [3-(4,5-dimethylthiazol-2-yl)-2,5-diphenyltetrazolium bromide] into an insoluble purple formazan by the action of mitochondrial reductase. Formazan is then solubilized and its concentration is determined by measuring the optical density (OD) value at a wavelength of 570 nm. The value is in proportional to the number of live cells with excellent linearity up to ˜10^6 cells per well. The MTT assay was used to determine the EC50 value, the concentration of a compound that leads to 50% inhibition of cellular proliferation. Briefly, cells were split when growing to the mid-Log phase. Cells in 100 μL of culture medium were seeded into each well of 96-well microplates and cultivated for 15˜24 hours to reach a confluence of 20˜30% and were then exposed to drugs at concentrations ranging from 1 nM to 10 μM. At the endpoint, 20 μL of a MTT stock solution in DMSO (5 mg/mL) was added to each well that contains […] of DMEM. The microplates were left in the cell culture incubator for 3˜4 h before subjected to solubilization and determination of formazan at A570 in a microplate reader (BioTek ELX808iu). […] Therefore, these compounds might hold a broad utility in the treatment of a large variety of human malignancies.
# [2] = system: RPEMYC^H2B-GFP cells; assay: Mechanism-informed phenotypic screening assay (mitotic arrest, polyploidy; GE IN-Cell Analyzer 2000); details: 20 nM to 20 μM, 24, 48 or 72 hours, read-out: Mitotic Arrest (≥5%)
# [3] = system: gastric cancer cell line NCI-N87; assay: Minimal effective concentration that elicits polyploidy, NCI-N87; details: Homo sapiens, read-out: MECP: Minimal effective concentration that elicits polyploidy
# [4] = system: breast cancer cell line MDA-MB-231; assay: Minimal effective concentration that elicits polyploidy, MDA-MB-231; details: Homo sapiens, read-out: MECP: Minimal effective concentration that elicits polyploidy
# [5] = system: liver cancer cell line T2 HCC; assay: MTT assay of cellular proliferation, T2 HCC; details: Mus musculus, read-out: EC50: Concentration that inhibits 50% of proliferation
# Protocol: as §1, §2
# [6] = system: cervical cancer cell line Hela; assay: Minimal effective concentration that elicits polyploidy, Hela; details: Homo sapiens, read-out: MECP: Minimal effective concentration that elicits polyploidy
# [7] = system: colon cancer cell line HCT116; assay: Minimal effective concentration that elicits polyploidy, HCT116; details: Homo sapiens, HCT-116, read-out: MECP: Minimal effective concentration that elicits polyploidy
# [8] = system: gastric cancer cell line NCI-N87; assay: MTT assay of cellular proliferation, NCI-N87; details: Homo sapiens, read-out: EC50: Concentration that inhibits 50% of proliferation
# Protocol: as §1, §2
# [9] = system: lung cancer cell line NCI-H23; assay: MTT assay of cellular proliferation, NCI-H23; details: Homo sapiens, read-out: EC50: Concentration that inhibits 50% of proliferation
# Protocol: as §1, §2
# [10] = system: colon cancer cell line HCT116; assay: MTT assay of cellular proliferation, HCT116; details: Homo sapiens, HCT-116, read-out: EC50: Concentration that inhibits 50% of proliferation
# Protocol: as §1, §2
# [11] = system: breast cancer cell line MDA-MB-231; assay: MTT assay of cellular proliferation, MDA-MB-231; details: Homo sapiens, read-out: EC50: Concentration that inhibits 50% of proliferation
# Protocol: as §1, §2
# [12] = system: RPEMYC^H2B-GFP cells; assay: Mechanism-informed phenotypic screening assay (mitotic arrest, polyploidy; GE IN-Cell Analyzer 2000); details: 20 nM to 20 μM, 24, 48 or 72 hours, read-out: Min. Effective conc. for polyploidy (≥5%)
# Protocol: We have Previously Developed a Mechanism-Informed Phenotypic Screening Assay to identify novel antimitotic agents (Li et al. 2019). Equipped with a prior understanding of the versatile functions of the chromosomal passenger protein (CPP) complex in orchestrating karyokinesis and cytokinesis, the screening assay is to score for phenotypes typically seen when the CPP complex is disabled. Specifically, the parameters for a positive hit are a temporary elevation of mitotic index (MI) at 24 hours of drug treatment and an accumulation of polyploid cells at 48 hours of drug treatment, indicative of mitotic arrest and cytokinetic failure respectively. These parameters exclude compounds that elicit only a prolonged arrest of cells in mitosis, a phenotype typically provoked by spindle toxins. The screening procedure is briefly summarized here. RPEMYC^H2B-GFP cells engineered to express a Histone 2B-EGFP fusion protein were passaged as batches of 96-well plates, 18-24 hours before exposure to the chemical compounds of the present disclosure at concentrations from 20 nM to 20 μM. At 24, 48 or 72 hours after initiation of treatment, cells were analyzed for either an arrest in mitosis or a change in DNA content by GE IN-Cell Analyzer 2000. As set forth in table 2 below, a value of greater than or equal to […] and less than or equal to 1.0 μM is marked e “A”; a value greater than […] and less than or equal to 10.0 μM is marked “B”; a value greater than 10.0 μM and less than or equal to 30.0 μM is marked “C”; and a value greater than 30.0 μM is marked “D.”
# [13] = system: lung cancer cell line A549; assay: MTT assay of cellular proliferation, A549; details: Homo sapiens, read-out: EC50: Concentration that inhibits 50% of proliferation
# Protocol: as §1, §2
# [14] = system: cervical cancer cell line Hela; assay: MTT assay of cellular proliferation, Hela; details: Homo sapiens, read-out: EC50: Concentration that inhibits 50% of proliferation
# Protocol: as §1, §2
# [15] = system: lung cancer cell line A549; assay: Minimal effective concentration that elicits polyploidy, A549; details: Homo sapiens, read-out: MECP: Minimal effective concentration that elicits polyploidy
# [16] = system: liver cancer cell line T2 HCC; assay: Minimal effective concentration that elicits polyploidy, T2 HCC; details: Mus musculus, read-out: MECP: Minimal effective concentration that elicits polyploidy
# [17] = system: SW480; assay: Minimal effective concentration that elicits polyploidy, SW480; details: Homo sapiens, read-out: MECP: Minimal effective concentration that elicits polyploidy
# [18] = system: lung cancer cell line NCI-H23; assay: Minimal effective concentration that elicits polyploidy, NCI-H23; details: Homo sapiens, read-out: MECP: Minimal effective concentration that elicits polyploidy
Compound,EC50 [1] [nM],minimal effective concentration [2] [µM],minimal effective concentration [3] [µM],minimal effective concentration [4] [µM],EC50 [5] [nM],minimal effective concentration [6] [µM],minimal effective concentration [7] [µM],EC50 [8] [nM],EC50 [9] [nM],EC50 [10] [nM],EC50 [11] [nM],minimal effective concentration [12] [µM],EC50 [13] [nM],EC50 [14] [nM],minimal effective concentration [15] [µM],minimal effective concentration [16] [µM],minimal effective concentration [17] [µM],minimal effective concentration [18] [µM]
"CNC(=O)c1cc(OC)cc(Oc2ncccc2-c2ccnc(C)c2)c1 [Compound 36, 3-methoxy-N-methyl-5-((2′-methyl-[3,4′-bipyridin]-2-yl)oxy)benzamide]",1 to 1000,1,0.001 to 1,0.001 to 1,1 to 1000,0.001 to 1,0.001 to 1,1 to 1000,1 to 1000,1 to 1000,1 to 1000,1,1 to 1000,1 to 1000,0.001 to 1,0.001 to 1,0.001 to 1,0.001 to 1
"CNC(=O)c1cc(OC)cc(Oc2ncccc2-c2ccncc2)c1 [Compound 4, 3-([3,4′-bipyridin]-2-yloxy)-5-methoxy-N-methylbenzamide]",1 to 1000,1,0.001 to 1,0.001 to 1,1 to 1000,0.001 to 1,0.001 to 1,1000 to 10000,1 to 1000,1 to 1000,1 to 1000,1,1 to 1000,1 to 1000,0.001 to 1,0.001 to 1,0.001 to 1,0.001 to 1
"COc1cc(Oc2ncccc2-c2ccncc2)cc(C(=O)O)c1 [Compound 3, 3-([3,4′-bipyridin]-2-yloxy)-5-methoxybenzoic acid]",1 to 1000,> 30,0.001 to 1,0.001 to 1,1 to 1000,0.001 to 1,0.001 to 1,1 to 1000,1 to 1000,1 to 1000,1 to 1000,> 30,1 to 1000,1 to 1000,0.001 to 1,0.001 to 1,0.001 to 1,0.001 to 1
COC(=O)c1cc(OC)cc(Oc2nccnc2-c2ccncc2)c1 [Compound 17],–,1,0.001 to 1,0.001 to 1,1 to 1000,0.001 to 1,0.001 to 1,1 to 1000,1 to 1000,1 to 1000,1 to 1000,1,10000 to 30000,1 to 1000,0.001 to 1,0.001 to 1,–,0.001 to 1
